Measured values from ChEMBL document CHEMBL3991601, “The target landscape of clinical kinase drugs” (Science, 2017).
Calls of active or inactive are those of the source.

Assays:
[1] = molecular target: Bone morphogenetic protein receptor type-1B (Homo sapiens, UniProt O00238)
LIM domain kinase 2 = LIM domain kinase 2 (Homo sapiens, UniProt P53671)
Midasin = Midasin (Homo sapiens, UniProt Q9NU22)
[2] = molecular target: T1, Acyl-CoA dehydrogenase family member 11 (Homo sapiens, UniProt Q709F0)
T1 sequence (Q709F0 whole entry): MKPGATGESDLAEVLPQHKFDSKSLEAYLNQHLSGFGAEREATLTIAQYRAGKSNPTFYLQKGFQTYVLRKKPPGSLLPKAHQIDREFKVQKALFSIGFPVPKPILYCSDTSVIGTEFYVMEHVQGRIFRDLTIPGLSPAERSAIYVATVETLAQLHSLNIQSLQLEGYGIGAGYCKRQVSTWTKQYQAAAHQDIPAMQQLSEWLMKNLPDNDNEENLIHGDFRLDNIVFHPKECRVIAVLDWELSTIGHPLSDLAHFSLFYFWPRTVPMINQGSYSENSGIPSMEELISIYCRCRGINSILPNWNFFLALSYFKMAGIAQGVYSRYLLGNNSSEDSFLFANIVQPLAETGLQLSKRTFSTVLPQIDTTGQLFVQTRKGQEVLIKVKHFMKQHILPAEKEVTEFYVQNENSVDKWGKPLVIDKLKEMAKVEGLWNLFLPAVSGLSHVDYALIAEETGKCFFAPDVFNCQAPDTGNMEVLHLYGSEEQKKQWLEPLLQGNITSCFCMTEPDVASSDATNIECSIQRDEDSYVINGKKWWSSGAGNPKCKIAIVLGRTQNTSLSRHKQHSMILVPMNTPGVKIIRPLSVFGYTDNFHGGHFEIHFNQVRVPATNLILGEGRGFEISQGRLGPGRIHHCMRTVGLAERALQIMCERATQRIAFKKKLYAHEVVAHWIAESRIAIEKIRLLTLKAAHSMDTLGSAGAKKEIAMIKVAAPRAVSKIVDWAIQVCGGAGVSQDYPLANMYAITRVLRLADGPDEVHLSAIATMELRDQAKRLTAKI

Myosin-14 = Myosin-14 (Homo sapiens, UniProt Q7Z406)
Sequence of Myosin-14 (Q7Z406 whole entry): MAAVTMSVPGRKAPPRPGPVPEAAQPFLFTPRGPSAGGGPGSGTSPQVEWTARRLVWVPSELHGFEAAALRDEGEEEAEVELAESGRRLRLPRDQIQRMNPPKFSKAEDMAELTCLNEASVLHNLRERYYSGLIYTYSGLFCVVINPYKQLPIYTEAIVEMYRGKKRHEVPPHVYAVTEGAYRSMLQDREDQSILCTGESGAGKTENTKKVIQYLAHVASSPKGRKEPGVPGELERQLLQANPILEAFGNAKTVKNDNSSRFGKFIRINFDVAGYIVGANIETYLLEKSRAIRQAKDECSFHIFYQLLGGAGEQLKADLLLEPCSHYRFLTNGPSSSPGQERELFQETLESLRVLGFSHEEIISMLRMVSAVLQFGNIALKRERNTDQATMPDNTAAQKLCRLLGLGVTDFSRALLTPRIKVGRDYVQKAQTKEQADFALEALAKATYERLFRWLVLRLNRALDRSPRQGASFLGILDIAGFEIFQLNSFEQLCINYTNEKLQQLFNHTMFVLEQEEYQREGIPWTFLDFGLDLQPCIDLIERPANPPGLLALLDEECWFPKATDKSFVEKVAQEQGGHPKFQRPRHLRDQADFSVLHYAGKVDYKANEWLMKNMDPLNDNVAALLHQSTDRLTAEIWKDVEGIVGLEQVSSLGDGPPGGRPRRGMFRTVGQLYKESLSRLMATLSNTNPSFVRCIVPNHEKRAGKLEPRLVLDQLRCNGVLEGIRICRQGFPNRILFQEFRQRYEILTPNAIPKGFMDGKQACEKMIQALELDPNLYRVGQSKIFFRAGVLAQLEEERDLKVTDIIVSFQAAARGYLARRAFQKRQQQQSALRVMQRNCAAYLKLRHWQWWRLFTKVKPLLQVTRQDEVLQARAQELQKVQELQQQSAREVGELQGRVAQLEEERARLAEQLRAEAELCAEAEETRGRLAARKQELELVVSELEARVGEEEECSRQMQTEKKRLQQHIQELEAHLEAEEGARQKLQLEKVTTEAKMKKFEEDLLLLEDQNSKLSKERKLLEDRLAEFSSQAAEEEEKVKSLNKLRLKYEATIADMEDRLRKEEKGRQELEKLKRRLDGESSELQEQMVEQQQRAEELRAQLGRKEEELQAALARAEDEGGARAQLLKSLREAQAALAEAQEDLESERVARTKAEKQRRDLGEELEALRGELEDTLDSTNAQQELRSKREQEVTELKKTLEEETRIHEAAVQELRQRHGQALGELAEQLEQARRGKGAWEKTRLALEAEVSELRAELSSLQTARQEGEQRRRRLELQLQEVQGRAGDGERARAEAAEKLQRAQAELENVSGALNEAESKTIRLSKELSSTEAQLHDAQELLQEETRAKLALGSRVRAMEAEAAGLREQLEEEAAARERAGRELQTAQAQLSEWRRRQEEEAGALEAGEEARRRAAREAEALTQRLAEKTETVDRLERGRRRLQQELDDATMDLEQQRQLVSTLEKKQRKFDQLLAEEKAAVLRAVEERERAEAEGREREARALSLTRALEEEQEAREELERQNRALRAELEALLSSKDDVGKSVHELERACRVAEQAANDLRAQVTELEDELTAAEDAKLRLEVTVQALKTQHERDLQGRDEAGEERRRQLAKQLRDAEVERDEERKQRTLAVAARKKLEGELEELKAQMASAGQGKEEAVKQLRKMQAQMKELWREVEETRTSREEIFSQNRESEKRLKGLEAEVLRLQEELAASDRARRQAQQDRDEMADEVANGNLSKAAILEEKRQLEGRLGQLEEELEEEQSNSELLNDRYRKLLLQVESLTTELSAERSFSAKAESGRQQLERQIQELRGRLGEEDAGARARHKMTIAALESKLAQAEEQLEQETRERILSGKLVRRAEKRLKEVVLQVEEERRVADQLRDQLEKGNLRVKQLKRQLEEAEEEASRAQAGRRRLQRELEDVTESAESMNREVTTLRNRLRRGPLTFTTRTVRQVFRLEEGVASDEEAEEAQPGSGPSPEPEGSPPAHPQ

[3] = molecular target: T2, Peroxisomal acyl-coenzyme A oxidase 1 (Homo sapiens, UniProt Q15067)
T2 sequence (Q15067 whole entry): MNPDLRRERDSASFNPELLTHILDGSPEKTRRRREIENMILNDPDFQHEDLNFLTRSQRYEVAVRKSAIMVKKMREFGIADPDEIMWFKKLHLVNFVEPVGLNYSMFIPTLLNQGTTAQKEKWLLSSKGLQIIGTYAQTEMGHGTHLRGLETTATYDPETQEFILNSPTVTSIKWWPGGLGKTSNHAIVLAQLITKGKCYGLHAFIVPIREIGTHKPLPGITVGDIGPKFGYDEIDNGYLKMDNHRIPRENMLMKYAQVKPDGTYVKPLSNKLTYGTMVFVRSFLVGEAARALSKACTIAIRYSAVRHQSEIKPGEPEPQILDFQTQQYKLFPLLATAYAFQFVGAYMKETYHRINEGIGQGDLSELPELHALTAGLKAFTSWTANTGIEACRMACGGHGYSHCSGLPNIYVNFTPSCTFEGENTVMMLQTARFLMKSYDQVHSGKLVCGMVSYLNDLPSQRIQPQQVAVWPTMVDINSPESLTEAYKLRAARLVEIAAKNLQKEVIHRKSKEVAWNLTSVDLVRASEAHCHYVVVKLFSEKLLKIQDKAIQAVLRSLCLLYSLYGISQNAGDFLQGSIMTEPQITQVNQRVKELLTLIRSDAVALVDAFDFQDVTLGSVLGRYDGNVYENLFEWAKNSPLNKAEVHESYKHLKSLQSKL

[4] = molecular target: ATP-dependent RNA helicase DDX3X (Homo sapiens, UniProt O00571)
Sequence of ATP-dependent RNA helicase DDX3X (O00571 whole entry): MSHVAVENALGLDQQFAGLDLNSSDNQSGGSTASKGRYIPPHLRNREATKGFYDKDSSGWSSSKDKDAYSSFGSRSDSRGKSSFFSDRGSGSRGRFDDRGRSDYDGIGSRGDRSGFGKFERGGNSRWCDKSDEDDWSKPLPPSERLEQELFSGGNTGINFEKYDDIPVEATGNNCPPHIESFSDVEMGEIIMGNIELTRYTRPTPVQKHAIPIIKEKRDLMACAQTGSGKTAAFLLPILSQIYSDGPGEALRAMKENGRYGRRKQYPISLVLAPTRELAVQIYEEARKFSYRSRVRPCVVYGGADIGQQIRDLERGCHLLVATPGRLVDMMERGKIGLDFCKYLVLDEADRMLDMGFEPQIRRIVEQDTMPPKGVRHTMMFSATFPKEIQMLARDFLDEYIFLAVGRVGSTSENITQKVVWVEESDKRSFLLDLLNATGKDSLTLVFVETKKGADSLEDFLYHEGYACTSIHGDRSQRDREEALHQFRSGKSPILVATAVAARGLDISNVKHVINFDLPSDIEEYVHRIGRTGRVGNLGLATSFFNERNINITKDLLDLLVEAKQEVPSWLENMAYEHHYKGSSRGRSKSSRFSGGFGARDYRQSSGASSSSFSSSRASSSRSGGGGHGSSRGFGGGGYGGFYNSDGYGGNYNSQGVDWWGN

[5] = molecular target: T3, Ferrochelatase, mitochondrial (Homo sapiens, UniProt P22830)
T3 sequence (P22830 whole entry): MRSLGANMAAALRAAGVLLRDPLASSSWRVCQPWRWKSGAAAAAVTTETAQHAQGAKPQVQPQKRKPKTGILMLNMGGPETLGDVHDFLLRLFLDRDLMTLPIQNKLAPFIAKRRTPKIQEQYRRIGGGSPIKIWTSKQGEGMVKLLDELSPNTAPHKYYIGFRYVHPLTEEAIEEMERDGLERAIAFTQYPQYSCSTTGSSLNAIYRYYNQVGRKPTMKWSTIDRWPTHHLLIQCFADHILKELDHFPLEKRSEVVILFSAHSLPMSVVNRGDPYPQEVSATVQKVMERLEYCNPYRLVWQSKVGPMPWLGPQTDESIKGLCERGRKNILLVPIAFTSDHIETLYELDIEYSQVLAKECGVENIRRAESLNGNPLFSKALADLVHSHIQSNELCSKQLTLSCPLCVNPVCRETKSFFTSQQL

[6] = molecular target: T4, Ras-related protein Rab-10 (Homo sapiens, UniProt P61026)
T4 sequence (P61026 whole entry): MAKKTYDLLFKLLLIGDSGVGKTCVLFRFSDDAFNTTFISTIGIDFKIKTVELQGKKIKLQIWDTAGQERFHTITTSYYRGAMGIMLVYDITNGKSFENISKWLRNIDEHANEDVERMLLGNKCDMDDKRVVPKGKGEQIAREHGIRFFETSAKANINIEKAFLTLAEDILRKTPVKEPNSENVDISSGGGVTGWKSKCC

[7] = molecular target: Tyrosine-protein kinase FRK (Homo sapiens, UniProt P42685)
Sequence of Tyrosine-protein kinase FRK (P42685 whole entry): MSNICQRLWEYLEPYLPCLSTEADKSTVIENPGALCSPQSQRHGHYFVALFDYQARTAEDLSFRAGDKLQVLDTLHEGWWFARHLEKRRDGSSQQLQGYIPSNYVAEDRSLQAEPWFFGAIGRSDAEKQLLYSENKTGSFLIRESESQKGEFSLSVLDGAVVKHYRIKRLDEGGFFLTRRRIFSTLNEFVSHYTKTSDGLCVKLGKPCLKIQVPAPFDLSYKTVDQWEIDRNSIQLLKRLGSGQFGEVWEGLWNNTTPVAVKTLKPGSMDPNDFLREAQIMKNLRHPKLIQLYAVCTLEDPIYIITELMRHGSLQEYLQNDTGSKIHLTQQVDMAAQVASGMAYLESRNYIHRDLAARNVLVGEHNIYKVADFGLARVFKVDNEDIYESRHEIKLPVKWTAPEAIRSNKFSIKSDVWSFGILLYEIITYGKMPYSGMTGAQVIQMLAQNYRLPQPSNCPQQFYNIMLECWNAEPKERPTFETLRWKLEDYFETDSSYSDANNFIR

[8] = molecular target: Fibroblast growth factor receptor 1 (Homo sapiens, UniProt P11362)
Ephrin type-A receptor 5 = Ephrin type-A receptor 5 (Homo sapiens, UniProt P54756)
Sequence of Ephrin type-A receptor 5 (P54756 whole entry): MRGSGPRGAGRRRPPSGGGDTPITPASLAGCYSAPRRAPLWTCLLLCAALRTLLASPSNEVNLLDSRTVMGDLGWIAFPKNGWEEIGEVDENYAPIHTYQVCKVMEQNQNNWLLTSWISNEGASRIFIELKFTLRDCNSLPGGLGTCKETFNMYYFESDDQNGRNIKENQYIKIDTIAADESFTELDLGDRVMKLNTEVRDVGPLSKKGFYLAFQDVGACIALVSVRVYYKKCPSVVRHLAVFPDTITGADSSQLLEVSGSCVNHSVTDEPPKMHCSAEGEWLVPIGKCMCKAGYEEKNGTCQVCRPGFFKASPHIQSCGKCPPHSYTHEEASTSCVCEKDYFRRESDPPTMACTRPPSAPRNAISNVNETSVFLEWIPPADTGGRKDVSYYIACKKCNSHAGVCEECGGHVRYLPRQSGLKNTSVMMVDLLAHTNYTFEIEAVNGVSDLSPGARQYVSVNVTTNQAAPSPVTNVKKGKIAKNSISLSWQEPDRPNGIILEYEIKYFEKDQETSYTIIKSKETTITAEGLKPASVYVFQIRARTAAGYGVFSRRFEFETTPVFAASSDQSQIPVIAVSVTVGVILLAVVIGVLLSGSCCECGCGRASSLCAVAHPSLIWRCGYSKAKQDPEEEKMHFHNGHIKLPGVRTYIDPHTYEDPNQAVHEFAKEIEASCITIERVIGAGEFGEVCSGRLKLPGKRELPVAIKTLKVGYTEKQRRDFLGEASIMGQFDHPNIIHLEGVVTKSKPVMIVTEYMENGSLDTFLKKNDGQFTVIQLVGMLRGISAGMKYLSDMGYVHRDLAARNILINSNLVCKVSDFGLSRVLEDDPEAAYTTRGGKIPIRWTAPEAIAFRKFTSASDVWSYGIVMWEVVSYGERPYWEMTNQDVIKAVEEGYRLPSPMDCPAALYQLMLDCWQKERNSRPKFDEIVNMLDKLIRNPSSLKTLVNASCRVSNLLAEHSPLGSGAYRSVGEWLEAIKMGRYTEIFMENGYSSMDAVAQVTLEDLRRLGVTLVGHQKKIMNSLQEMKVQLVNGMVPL

[9] = molecular target: T5, Cytochrome c1, heme protein, mitochondrial (Homo sapiens, UniProt P08574)
T5 sequence (P08574 whole entry): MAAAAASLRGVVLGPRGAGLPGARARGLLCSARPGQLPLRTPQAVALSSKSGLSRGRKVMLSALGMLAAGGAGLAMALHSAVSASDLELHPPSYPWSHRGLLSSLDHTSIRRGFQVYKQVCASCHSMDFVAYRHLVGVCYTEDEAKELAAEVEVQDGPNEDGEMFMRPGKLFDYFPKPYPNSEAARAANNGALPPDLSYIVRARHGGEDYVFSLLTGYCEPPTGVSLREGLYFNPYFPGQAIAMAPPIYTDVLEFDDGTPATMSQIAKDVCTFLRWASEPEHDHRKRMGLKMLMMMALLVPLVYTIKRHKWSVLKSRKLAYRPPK

[10] = molecular target: MAP/microtubule affinity-regulating kinase 3 (Homo sapiens, UniProt P27448)
Further: in the data inactive means no Kd found up to 30 µM.

Sequence of Bone morphogenetic protein receptor type-1B (O00238 whole entry, the tested form may be a part): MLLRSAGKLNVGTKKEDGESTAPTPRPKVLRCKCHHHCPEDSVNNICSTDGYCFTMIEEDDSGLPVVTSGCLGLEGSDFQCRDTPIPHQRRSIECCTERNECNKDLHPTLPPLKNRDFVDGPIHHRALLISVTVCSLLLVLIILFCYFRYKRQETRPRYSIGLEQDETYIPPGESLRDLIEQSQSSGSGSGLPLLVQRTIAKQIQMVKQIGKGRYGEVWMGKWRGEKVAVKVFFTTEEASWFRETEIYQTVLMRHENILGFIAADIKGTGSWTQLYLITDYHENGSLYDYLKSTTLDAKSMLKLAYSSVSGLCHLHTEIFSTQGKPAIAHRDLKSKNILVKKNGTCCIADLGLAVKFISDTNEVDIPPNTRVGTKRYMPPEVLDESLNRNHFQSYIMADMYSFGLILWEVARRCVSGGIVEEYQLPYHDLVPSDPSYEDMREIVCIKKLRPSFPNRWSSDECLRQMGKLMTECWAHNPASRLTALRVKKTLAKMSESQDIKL

SMILES | Kd [1] | Kd (LIM domain kinase 2) | Kd (Midasin) | Kd [2] | Kd (Myosin-14) | Kd [3] | Kd [4] | Kd [5] | Kd [6] | Kd [7] | Kd [8] | Kd (Ephrin type-A receptor 5) | Kd [9] | Kd [10]
C[C@H]1CNCCCN1S(=O)(=O)c1cccc2cncc(F)c12 | > 30 µM (inactive) | > 30 µM (inactive) | > 30 µM (inactive) | > 30 µM (inactive) | > 30 µM (inactive) | > 30 µM (inactive) | > 30 µM (inactive) | > 30 µM (inactive) | > 30 µM (inactive) | > 30 µM (inactive) | > 30 µM (inactive) | > 30 µM (inactive) | > 30 µM (inactive) | 58.2 µM (active)
CCNC(=O)C#Cc1ccc2c(c1)NC(=O)/C2=C(\Nc1ccc(CN(C)C)cc1)c1ccccc1 | > 30 µM (inactive) | > 30 µM (inactive) | 1.32 µM | > 30 µM (inactive) | > 30 µM (inactive) | > 30 µM (inactive) | > 30 µM (inactive) | 3.48 µM (active) | > 30 µM (inactive) | 0.736 µM (active) | 2.51 µM (active) | > 30 µM (inactive) | > 30 µM (inactive) | > 30 µM (inactive)
COCc1c(-c2ccc(NC(=O)Nc3cc(C(F)(F)F)ccc3F)c(F)c2)c2c(N)ncnn2c1CN1CCOCC1 | > 30 µM (inactive) | > 30 µM (inactive) | > 30 µM (inactive) | > 30 µM (inactive) | > 30 µM (inactive) | > 30 µM (inactive) | > 30 µM (inactive) | > 30 µM (inactive) | > 30 µM (inactive) | 1.86 µM (active) | 0.04 µM (active) | > 30 µM (inactive) | > 30 µM (inactive) | > 30 µM (inactive)
Cc1nc(NC(=O)N2CCC[C@H]2C(N)=O)sc1-c1ccnc(C(C)(C)C(F)(F)F)c1 [ALPELISIB] | > 30 µM (inactive) | > 30 µM (inactive) | > 30 µM (inactive) | > 30 µM (inactive) | > 30 µM (inactive) | > 30 µM (inactive) | > 30 µM (inactive) | > 30 µM (inactive) | > 30 µM (inactive) | > 30 µM (inactive) | > 30 µM (inactive) | > 30 µM (inactive) | > 30 µM (inactive) | > 30 µM (inactive)
Cn1cnc2c(F)c(Nc3ccc(Br)cc3F)c(C(=O)NOCCO)cc21 [BINIMETINIB] | > 30 µM (inactive) | > 30 µM (inactive) | > 30 µM (inactive) | > 30 µM (inactive) | > 30 µM (inactive) | > 30 µM (inactive) | > 30 µM (inactive) | > 30 µM (inactive) | > 30 µM (inactive) | > 30 µM (inactive) | > 30 µM (inactive) | > 30 µM (inactive) | > 30 µM (inactive) | > 30 µM (inactive)
Cc1cc(Nc2ncc(Cl)c(Nc3ccccc3S(=O)(=O)C(C)C)n2)c(OC(C)C)cc1C1CCNCC1 [CERITINIB] | > 30 µM (inactive) | > 30 µM (inactive) | > 30 µM (inactive) | > 30 µM (inactive) | > 30 µM (inactive) | > 30 µM (inactive) | > 30 µM (inactive) | > 30 µM (inactive) | > 30 µM (inactive) | > 30 µM (inactive) | > 30 µM (inactive) | > 30 µM (inactive) | > 30 µM (inactive) | > 30 µM (inactive)
CC(C)(C)c1nc(-c2cccc(NS(=O)(=O)c3c(F)cccc3F)c2F)c(-c2ccnc(N)n2)s1 [DABRAFENIB] | > 30 µM (inactive) | 0.082 µM (active) | > 30 µM (inactive) | > 30 µM (inactive) | > 30 µM (inactive) | > 30 µM (inactive) | > 30 µM (inactive) | > 30 µM (inactive) | > 30 µM (inactive) | 0.727 µM (active) | > 30 µM (inactive) | – | > 30 µM (inactive) | > 30 µM (inactive)
O=C(Nc1cc(C(F)(F)F)cc(C(F)(F)F)c1)c1cc(Cl)ccc1O [IMD-0354] | > 30 µM (inactive) | > 30 µM (inactive) | > 30 µM (inactive) | > 30 µM (inactive) | > 30 µM (inactive) | > 30 µM (inactive) | > 30 µM (inactive) | > 30 µM (inactive) | – | > 30 µM (inactive) | > 30 µM (inactive) | > 30 µM (inactive) | > 30 µM (inactive) | > 30 µM (inactive)

Continued, values first:

Kd [1] | Kd (LIM domain kinase 2) | Kd (Midasin) | Kd [2] | Kd (Myosin-14) | Kd [3] | Kd [4] | Kd [5] | Kd [6] | Kd [7] | Kd [8] | Kd (Ephrin type-A receptor 5) | Kd [9] | Kd [10] | SMILES
> 30 µM (inactive) | > 30 µM (inactive) | – | > 30 µM (inactive) | > 30 µM (inactive) | > 30 µM (inactive) | > 30 µM (inactive) | > 30 µM (inactive) | > 30 µM (inactive) | > 30 µM (inactive) | > 30 µM (inactive) | > 30 µM (inactive) | > 30 µM (inactive) | > 30 µM (inactive) | Cc1csc(-c2nnc(Nc3ccc(Oc4ncccc4-c4ccnc(N)n4)cc3)c3ccccc23)c1 [AMG-900]
> 30 µM (inactive) | > 30 µM (inactive) | > 30 µM (inactive) | > 30 µM (inactive) | > 30 µM (inactive) | > 30 µM (inactive) | > 30 µM (inactive) | > 30 µM (inactive) | > 30 µM (inactive) | > 30 µM (inactive) | > 30 µM (inactive) | > 30 µM (inactive) | > 30 µM (inactive) | > 30 µM (inactive) | CCn1c(C(=O)N(C2CC2)C2CC2)cc2c3c(ncn3C)c(Nc3cc(C)n(C)n3)nc21 [BMS-911543]
– | > 30 µM (inactive) | > 30 µM (inactive) | > 30 µM (inactive) | > 30 µM (inactive) | > 30 µM (inactive) | > 30 µM (inactive) | > 30 µM (inactive) | > 30 µM (inactive) | > 30 µM (inactive) | 0.009 µM (active) | 0.081 µM (active) | > 30 µM (inactive) | 0.133 µM (active) | CC(C)c1cc(CNc2nc(Nc3cc(C4CC4)[nH]n3)cc(N3CCN(C)CC3)n2)on1 [XL-228]
